Consider 13 compounds from publication PMC8901119 (Chemical Science, 2021).

One data set deals with Cts L (Homo sapiens, UniProt P07711). As to the kind of experiment: Cathepsin L inhibition assay with Z-FR-AMC.
The nature of data set [1]: Stability of peptides in HepG2 whole cell lysate. Type of data set: in vitro ADME. Conditions: human. Here is the method: Stability of Peptides in HepG2 Whole Cell Lysate
Using the same conditions as the previous Cts L Activity Assay in HepG2 Whole Cell Lysate, 50 μL peptide (either R1A or RS1A; final concentration 20 μM) was incubated in 50 μL HepG2 whole cell lysate (to a final concentration of 0.05 mg/mL) in the assay buffer for different time points.
The all-amide peptide, R 1A, was incubated for t = 0, 5, 10, 15, 20, and 30 minutes. The thioamide peptide, RS1A, was incubated for t = 0, 2, 6, 8, 10, and 24 hours. After incubation for the desired amount of time, 100 μL methanol was added to the mixture and incubated at -20 °C for 10 minutes before spinning down at 13,000 rpm for 10 minutes. Then, 180 μL of each mixture was further diluted with 220 μL Milli-Q water to a total volume of 400 μL before adding 1 μL 0.42 mM coumarin internal standard for HPLC analysis. The coumarin internal standard was used to normalize the amount of intact peptide in each sample. A Phenomenex Luna® Omega 5 µm PS C18 100 Å analytical column was used to analyze all samples using the same gradient of 20-40 % B over 20 minutes (Solvent A: 0.1% TFA in Milli-Q water; Solvent B: 0.1% TFA in acetonitrile).
Representative HPLC spectra (325 nm) at different time points were also shown to confirm the stability of the peptides in HepG2 whole cell lysate (Figure S26 A & B). MALDI MS was used to confirm the mass from each fraction from the HPLC from experiment with the all-amide peptide (R 1A – expected [M+H]+ = 1133.51 m/z) and the thioamide peptide ( RS1A – expected [M+H]+ = 1149.48 m/z). To calculate the percent intact peptide for each sample, the average ratio of intact peptide to internal standard was compared to that ratio at t = 0. For each time point, the experiment

In data set [2] the test system is cathepsin L (Cts L). Conditions: human, 27 °C, up to 2-hour.
For a further data set, the system named is cathepsin B (Cts B). Conditions: human, 27 °C, up to 100 min.
In a further data set the test system is cathepsin S (Cts S). Conditions: 27 °C, up to 100 min.
A further data set deals with cathepsin K (Cts K). Conditions: 27 °C, up to 100 min.
For data set [3], the system named is cathepsin L (Cts L). The following applies: human, 27 °C, up to 100 min.
The subject of another data set is cathepsin V (Cts V). The following applies: 27 °C, up to 100 min.
[4] abbreviates: Cts L, mixed inhibition model fit, Z-FR-AMC, pH 5.5, 27 °C.

Where two headings read alike, the source gives them in different places. Starred links: 1 amine or outer side, 2 acyl side, 3 side chain; linkers in the order of their positions; H or OH if unused. Non-standard residues stand in square brackets, D forms with d. Residues, ends and D or L forms follow the SMILES beside them. Ala(7-MeO-coumarin-4-yl) = COc1ccc2c(C[C@H](N)C(=O)O)cc(=O)oc2c1; X1 = C[C@H](NC(=S)[C@H](CCCNC(=N)N)N[*:1])C(=O)[*:2]; X2 = C[C@H](NC(=S)[C@H](CCCCN)N[*:1])C(=O)[*:2]

Sequence of Cts L (P07711 114-333): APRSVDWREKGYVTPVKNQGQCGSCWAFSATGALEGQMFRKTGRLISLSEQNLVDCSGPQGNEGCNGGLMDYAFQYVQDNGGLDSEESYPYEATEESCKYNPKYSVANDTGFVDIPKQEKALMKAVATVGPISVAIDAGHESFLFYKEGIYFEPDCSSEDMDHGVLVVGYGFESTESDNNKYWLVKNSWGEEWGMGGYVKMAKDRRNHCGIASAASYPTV

On Cts L (setting [4]), `COc1ccc2c(C[C@H](NC(=O)[C@H](C)NC(=O)[C@H](C)NC(=O)[C@H](C)NC(=O)[C@H](CCCCN)NC(=O)[C@H](Cc3ccccc3)NC(=O)[C@H](CC(C)C)NC(=O)[C@H](Cc3c[nH]cn3)NC(=O)[C@@H](N)Cc3cc(=O)oc4cc(OC)ccc34)C(=O)O)cc(=O)oc2c1` [K3A, μHLFKAAAμ] (H-[Ala(7-MeO-coumarin-4-yl)]HLFKAAA[Ala(7-MeO-coumarin-4-yl)]-OH) registered a Ki of 3050 ± 640 nM.
On Cts L (setting [4]), `COc1ccc2c(C[C@H](NC(=O)[C@H](C)NC(=O)[C@H](C)NC(=O)[C@H](C)NC(=S)[C@H](CCCCN)NC(=O)[C@H](Cc3ccccc3)NC(=O)[C@H](CC(C)C)NC(=O)[C@H](Cc3c[nH]cn3)NC(=O)[C@@H](N)Cc3cc(=O)oc4cc(OC)ccc34)C(=O)O)cc(=O)oc2c1` [K^S3A, μHLFK^SAAAμ] (H-[Ala(7-MeO-coumarin-4-yl)]HLF[X2]AA[Ala(7-MeO-coumarin-4-yl)]-OH) yielded a Ki of 600 ± 150 nM.
In turn, `COc1ccc2c(C[C@H](NC(=O)[C@H](C)NC(=O)[C@H](C)NC(=O)[C@H](C)NC(=S)[C@H](CCCCN)NC(=O)[C@H](CC(C)C)NC(=O)[C@H](CC(C)C)NC(=O)[C@@H](N)Cc3cc(=O)oc4cc(OC)ccc34)C(=O)O)cc(=O)oc2c1` [K^SP1, μLLK^SAAAμ] (H-[Ala(7-MeO-coumarin-4-yl)]LL[X2]AA[Ala(7-MeO-coumarin-4-yl)]-OH; N-terminus and C-terminus assumed) came in with a Ki at Cts L (Cts L (preliminary data), phosphate buffer pH 6.0, 27 °C, preliminary) of 870 nM.
In data set [1] (20 μM peptide, 0.05 mg/mL lysate, HPLC), `COc1ccc2c(C[C@H](NC(=O)[C@H](C)NC(=O)[C@H](CCCNC(=N)N)NC(=O)[C@H](Cc3ccccc3)NC(=O)[C@H](CC(C)C)NC(=O)[C@H](Cc3c[nH]cn3)NC(=O)[C@@H](N)Cc3cc(=O)oc4cc(OC)ccc34)C(=O)O)cc(=O)oc2c1` [R1A, μHLFRAμ] (H-[Ala(7-MeO-coumarin-4-yl)]HLFRA[Ala(7-MeO-coumarin-4-yl)]-OH) displayed a half-life at 20 μM of 7.2 min. Also, in data set [1] (HepG2 lysate, 5 mins, read-out: % intact peptide), the remaining at 5 min, 20 μM is 46%. Moreover, the remaining at 10 min, 20 μM in data set [1] (HepG2 lysate, 10 mins, read-out: % intact peptide) amounted to 36%. Also, in data set [1] (HepG2 lysate, 15 mins, read-out: % intact peptide), the remaining at 0.25 h, 20 μM amounted to 32.8%. Moreover, the remaining at 20 min, 20 μM in data set [1] (HepG2 lysate, 20 mins, read-out: % intact peptide) was 21.7%. Further, in data set [1] (HepG2 lysate, 30 mins, read-out: % intact peptide), the remaining at 0.5 h, 20 μM was 6.92%.
In the case of `COc1ccc2c(C[C@H](NC(=O)[C@H](C)NC(=O)[C@H](C)NC(=O)[C@H](C)NC(=O)[C@H](CCCNC(=N)N)NC(=O)[C@H](Cc3ccccc3)NC(=O)[C@H](CC(C)C)NC(=O)[C@H](Cc3c[nH]cn3)NC(=O)[C@@H](N)Cc3cc(=O)oc4cc(OC)ccc34)C(=O)O)cc(=O)oc2c1` [R3A, μHLFRAAAμ] (H-[Ala(7-MeO-coumarin-4-yl)]HLFRAAA[Ala(7-MeO-coumarin-4-yl)]-OH), the Ki on Cts L (setting [4]) was 1680 ± 490 nM.
For the compound `COc1ccc2c(C[C@H](NC(=O)[C@H](C)NC(=S)[C@H](CCCNC(=N)N)NC(=O)[C@H](Cc3ccccc3)NC(=O)[C@H](CC(C)C)NC(=O)[C@H](Cc3c[nH]cn3)NC(=O)[C@@H](N)Cc3cc(=O)oc4cc(OC)ccc34)C(=O)O)cc(=O)oc2c1` [R^S1A, μHLFR^SAμ] (H-[Ala(7-MeO-coumarin-4-yl)]HLF[X1][Ala(7-MeO-coumarin-4-yl)]-OH), the remaining at 2 h, 20 μM in data set [1] (HepG2 lysate, 2 hours, read-out: % intact peptide) was determined as 86.3%. Moreover, the remaining at 6 h, 20 μM in data set [1] (HepG2 lysate, 6 hours, read-out: % intact peptide) was determined as 75.7%. Also, in data set [1] (HepG2 lysate, 8 hours, read-out: % intact peptide), the remaining at 8 h, 20 μM worked out at 80.7%. Further, the remaining at 10 h, 20 μM in data set [1] (HepG2 lysate, 10 hours, read-out: % intact peptide) came to 79.9%. For the same compound, the remaining at 24 h, 20 μM in data set [1] (HepG2 lysate, 24 hours, read-out: % intact peptide) was determined as 61.3%.
With `COc1ccc2c(C[C@H](NC(=O)[C@H](C)NC(=O)[C@H](C)NC(=O)[C@H](C)NC(=S)[C@H](CCCNC(=N)N)NC(=O)[C@H](Cc3ccccc3)NC(=O)[C@H](CC(C)C)NC(=O)[C@H](Cc3c[nH]cn3)NC(=O)[C@@H](N)Cc3cc(=O)oc4cc(OC)ccc34)C(=O)O)cc(=O)oc2c1` [R^S3A, μHLFR^SAAAμ] (H-[Ala(7-MeO-coumarin-4-yl)]HLF[X1]AA[Ala(7-MeO-coumarin-4-yl)]-OH), the inhibitory constant (Ki) at Cts L (setting [4]) turned out to be 520 ± 120 nM.
Consider HLFR^SA, for which, in the data set on cathepsin L (Cts L) [2], the not cleaved result is reported as “remained intact after the 2-hour assay”.
As for “μHLFKAAAμ (H-[Ala(7-MeO-coumarin-4-yl)]HLFKAAA[Ala(7-MeO-coumarin-4-yl)]-OH; SMILES COc1ccc2c(C[C@H](NC(=O)[C@H](C)NC(=O)[C@H](C)NC(=O)[C@H](C)NC(=O)[C@H](CCCCN)NC(=O)[C@H](Cc3ccccc3)NC(=O)[C@H](CC(C)C)NC(=O)[C@H](Cc3c[nH]cn3)NC(=O)[C@@H](N)Cc3cc(=O)oc4cc(OC)ccc34)C(=O)O)cc(=O)oc2c1)”, the cleaved bond entry in the data set on cathepsin B (Cts B) and in the data set with cathepsin S (Cts S) was “K-A” throughout.
Regarding “μHLFK^SAAAμ (H-[Ala(7-MeO-coumarin-4-yl)]HLF[X2]AA[Ala(7-MeO-coumarin-4-yl)]-OH; SMILES COc1ccc2c(C[C@H](NC(=O)[C@H](C)NC(=O)[C@H](C)NC(=O)[C@H](C)NC(=S)[C@H](CCCCN)NC(=O)[C@H](Cc3ccccc3)NC(=O)[C@H](CC(C)C)NC(=O)[C@H](Cc3c[nH]cn3)NC(=O)[C@@H](N)Cc3cc(=O)oc4cc(OC)ccc34)C(=O)O)cc(=O)oc2c1)”, the cleaved bond entry in the data set on cathepsin B (Cts B) and in the data set with cathepsin L (Cts L) [3] was “A-A” in each case. Further, the not cleaved entry in the data set with cathepsin K (Cts K), in the data set with cathepsin S (Cts S) and in the data set on cathepsin V (Cts V) was “No cleavage” throughout.
In the case of “μHLFRAAAμ (H-[Ala(7-MeO-coumarin-4-yl)]HLFRAAA[Ala(7-MeO-coumarin-4-yl)]-OH; SMILES COc1ccc2c(C[C@H](NC(=O)[C@H](C)NC(=O)[C@H](C)NC(=O)[C@H](C)NC(=O)[C@H](CCCNC(=N)N)NC(=O)[C@H](Cc3ccccc3)NC(=O)[C@H](CC(C)C)NC(=O)[C@H](Cc3c[nH]cn3)NC(=O)[C@@H](N)Cc3cc(=O)oc4cc(OC)ccc34)C(=O)O)cc(=O)oc2c1)”, the cleaved bond result in the data set on cathepsin B (Cts B) and with cathepsin S (Cts S) was “R-A” throughout.
Regarding “μHLFR^SAAAμ (H-[Ala(7-MeO-coumarin-4-yl)]HLF[X1]AA[Ala(7-MeO-coumarin-4-yl)]-OH; SMILES COc1ccc2c(C[C@H](NC(=O)[C@H](C)NC(=O)[C@H](C)NC(=O)[C@H](C)NC(=S)[C@H](CCCNC(=N)N)NC(=O)[C@H](Cc3ccccc3)NC(=O)[C@H](CC(C)C)NC(=O)[C@H](Cc3c[nH]cn3)NC(=O)[C@@H](N)Cc3cc(=O)oc4cc(OC)ccc34)C(=O)O)cc(=O)oc2c1)”, the cleaved bond entry with cathepsin B (Cts B) and in the data set on cathepsin L (Cts L) [3] was “A-A” each time. Besides, the not cleaved entry in the data set with cathepsin K (Cts K), in the data set on cathepsin S (Cts S) and in the data set with cathepsin V (Cts V) was “No cleavage” each time.
With μHLFR^SAμ, the not cleaved entry with cathepsin B (Cts B), with cathepsin K (Cts K), in the data set with cathepsin L (Cts L) [3], in the data set on cathepsin S (Cts S) and in the data set with cathepsin V (Cts V) was “No cleavage” each time.

Broadly, the Ki is a measure of affinity in units of concentration, obtained from inhibition or displacement. What is called half-life is the time needed for the level to fall by half in the phase considered.
